According to ChEMBL document CHEMBL1629648, “New composite genetic element of the Tn916 family with dual macrolide resistance genes in a Streptococcus pneumoniae isolate belonging to clonal complex 271” (2009):
In brackets after ≈: the same amount, converted by molar mass.

Tested on: Streptococcus pneumoniae
Assay: Antimicrobial activity against multidrug resistant Streptococcus pneumoniae serotype 19F S43 carring erm(B),mef(E) and tet(M) gene
Type: functional

SMILES | MIC
CC[C@H]1OC(=O)[C@H](C)[C@@H](O[C@H]2C[C@@](C)(OC)[C@@H](O)[C@H](C)O2)[C@H](C)[C@@H](O[C@@H]2O[C@H](C)C[C@H](N(C)C)[C@H]2O)[C@](C)(O)C[C@@H](C)C(=O)[C@H](C)[C@@H](O)[C@]1(C)O [ERYTHROMYCIN] | > 256 µg/mL
CN(C)[C@@H]1C(O)=C(C(N)=O)C(=O)[C@@]2(O)C(O)=C3C(=O)c4c(O)cccc4[C@@](C)(O)[C@H]3C[C@@H]12 [TETRACYCLINE] | 16 µg/mL (≈ 36 µM)
CCC[C@@H]1C[C@@H](C(=O)N[C@@H]([C@H]2O[C@H](SC)[C@H](O)[C@@H](O)[C@H]2O)[C@H](C)Cl)N(C)C1 [CLINDAMYCIN] | > 256 µg/mL
CC1(C)S[C@@H]2[C@H](NC(=O)Cc3ccccc3)C(=O)N2[C@H]1C(=O)O [PENICILLIN G] | 4 µg/mL (≈ 12 µM)
